In publication PMC11039692, “SRY-Box transcription factor 9 triggers YAP nuclear entry via direct interaction in tumors” (Signal Transduction and Targeted Therapy, 2024):

Legend:
[1] = target: T1, YAP (Homo sapiens, UniProt P46937); assay: YAP nuclear level / nuclear translocation in Huh-7 cells; assay type: cell-based; details: for nuclear transport of YAP: HCC cells (Huh-7), PRMT1 inhibitor MS023 200 nM or siPRMT1
Method: Huh-7 cells were infected with lenti-YAP-linker-EGFP-rtTA3 followed by infection with lenti-SOX9-linker-mCherry-rtTA3, with selection using puromycin (Sigma-Aldrich, P9620) or Blasticidin S hydrochloride (Yeasen,60218ES10), and then plated on confocal 6-well plates (Biosharp, BS-15-GJM) at a suitable concentration. Approximately 1 h after doxycycline (DOX, Yeasen, 60204ES03) treatment, live cell images were captured every 30 min using an Olympus SpinSR10 microscope at ×200 magnification. For the PLA, the pretreated cell samples were fixed after DOX induction for 12 h. DOX was administered to the infected Huh-7 cells at a concentration of 1 μg/mL.
(§1) Cytoplasmic and nuclear fractionation was accessed by the Minute^TM Cytoplasmic and Nuclear Fractionation kit (Invent, SC-003) following the manufacturer’s recommendations with some modifications made by us to optimize the protocol. Cells were resuspended in pre-chilled cytoplasm extraction buffer and incubated on ice for 5 min. After a thorough one-minute vortex, the supernatant (cytoplasmic proteins) was obtained by centrifuging at 12,000 rpm for 5 min. To eliminate cytoplasmic proteins, the pellet was washed with pre-chilled PBS, and subsequently resuspended in a nuclear extraction buffer. The sample was vortexed thoroughly for 3 min in an ice bath, and these steps were repeated four times. The precipitate was discarded, and the supernatant (nuclear proteins) was saved for further analysis.

[2] = tested on: YAP-TEAD; assay: 8×GTIIC YAP-TEAD luciferase reporter assay; assay type: cell-based
Method: Huh-7 cells were transfected with a vector expressing full-length or truncated SOX9 together with a TEAD4-related reporter plasmid, 8×GTIIC (RIKEN, Japan). The pRL-SV40 (Promega, E2261) vector was transfected into all the treated cells and was used to normalize the data. Luciferase reporter gene assays were assayed with the Dual-Luciferase Reporter Assay System (Promega, E2920). All experiments were replicated a minimum of three times.

[3] = tested on: SOX9; assay: SOX9 nuclear level in Huh-7 cells; assay type: cell-based; details: CDZ 5 nM, 24 h
Method: as §1

[4] = tested on: YAP-SOX9 interaction; assay: Co-IP of SOX9-YAP interaction in cells; assay type: cell-based; details: V5-IP
Method: (§2) For protein preparation, cells were lysed in 2× sodium dodecyl sulfate (SDS) protein lysis buffer (4% SDS, 20% glycerol, 100 mM Tris-Cl [pH 6.8], with PMSF or other protease inhibitors). For co-immunoprecipitation (Co-IP), samples were prepared using Pierce^TM IP lysis buffer (Thermo Fisher Scientific, 87787) following the manufacturer's recommendations. Lysates were centrifuged at 12,000 rpm for 10 min, and the supernatants were collected. The protein concentration was determined using a BCA kit (Beyotime, P0010, Shanghai, China). For Co-IP samples, 1 mg of protein was precipitated with 20 μL of agarose-conjugated antibodies. For immunoblotting, protein samples were separated using SDS-polyacrylamide gel electrophoresis and then transferred onto nitrocellulose membranes (Millipore, HAHY00010).

[5] = tested on: YAP-SOX9 interaction; assay: PLA of SOX9-YAP interaction in cells; assay type: cell-based; details: HCC cells (DOX-induced Huh-7), peptides 10 μM, 24 h
Method: The pretreated cell samples were grown on coverslips, fixed in 4% paraformaldehyde (PFA) for 15 minutes, and then washed two times in PBS. Following a 1-hour incubation at 37 °C with blocking solution® (Sigma-Aldrich, DUO82007), the cells were incubated with primary antibodies at optimal concentrations overnight at 4 °C. After three washes in Buffer A® (Sigma-Aldrich, DUO82049), the samples were incubated with a 1:5 dilution of PLUS® and MINUS® Duolink In Situ PLA Probe (Sigma-Aldrich, DUO92002 and DUO92004) for 1 hour at 37 °C. Three additional washes in Buffer A® preceded a 30-minute incubation with 1 unit/μL of T4 DNA ligase diluted in ligase buffer (1:5, Sigma-Aldrich, DUO92013) at 37 °C. Subsequently, cells were washed three times again in Buffer A® and treated with 5 units/μL of DNA polymerase in diluted polymerase buffer (1:5, Sigma-Aldrich, DUO92013) for 100 min at 37 °C. Finally, cells were washed twice for 10 minutes each in 1× Buffer B® (Sigma-Aldrich, DUO82049), then quickly washed for 1 min in 0.01× Buffer B®. The slides were mounted using DUOlink in situ mounting medium containing DAPI, and the images were captured using a Leica TCS SP8 confocal microscope.

[6] = tested on: CTGF, CYR61 and AREG; assay: qPCR of YAP-target genes in cells; assay type: cell-based; details: Huh-7 cells, 10 μM
Method: (§3) Total RNA was isolated from cells or tissues with RNAiso Plus Reagent (TaKaRa, 9108). SuperScript Ⅲ reverse transcriptase (Invitrogen,18080093) was employed to synthesize first-strand cDNA. Real-time PCR was performed in an ABI Step One Real-time Detection System (Life Technologies) using SYBR Green (Takara, RR420A). The primer sequences are listed in supplementary Table 2.

[7] = tested on: Hep3B cells; assay: Proliferation of HCC cells; assay type: cell-based
[8] = tested on: SOX9^KO Huh-7 cells; assay: Proliferation of SOX9KO Huh-7 cells; assay type: cell-based; details: SOX9^KO Huh-7 cells treated with Pep-peptides
[9] = tested on: Huh-7 xenograft; assay: Huh-7 subcutaneous xenograft model; assay type: in vivo, BALB/c nude mice
Method: (§4) Huh-7 cells (1×106) or Huh-7 cells infected with different viruses were injected subcutaneously into the right flank of male athymic BALB/c nude mice (5 weeks old). Tumor volumes were measured and analyzed using the equation: volume = π/6×length×(width)2.Once the average tumor volume reached approximately 60 mm3, the mice were randomly divided into five groups (eight mice per group) and treated with intratumorally injections of Pep-S-A1, Pep-D125A, or saline twice weekly. For the orthotopic HCC model, 1×10^6 Huh-7 cells expressing luciferase were injected subcutaneously into the right flank of BALB/c nude mice to establish tumor xenografts. The tumor nodules derived from xenograft model and then were divided into 1 mm3 pieces and subsequently implanted into the left lobe of the livers of 5-week-old male BALB/c nude mice to mimic primary HCC. The mice were randomly separated into two groups (eight animals per group) according to the bioluminescence 3 days after implantation. Pep-S-A1 or Pep-D125A was then injected via the tail vein every 5 days. The mice were regularly monitored using a luminal imaging system (Caliper) once each week and killed 2 weeks post tumor fragments transplanted.

[10] = tested on: luciferase-expressing Huh-7 tumors; assay: Orthotopic HCC model; assay type: in vivo, BALB/c nude mice; details: 2-week delivery
Method: as §4

[11] = tested on: HCC cells; assay: Proliferation of Huh-7 / HCC cells; assay type: cell-based
[12] = target: T2, SOX9-HMG domain (Homo sapiens, UniProt P48436); assay: MST binding to SOX9-HMG domain; details: 50 mM Tris-HCl pH 7.4, 150 mM NaCl, 0.05% Tween-20, effect of R124K mutation on YAP peptide (aa 115–135)
T2 construct: made in house; host or cells: Escherichia coli
T2 sequence (P48436 98-181): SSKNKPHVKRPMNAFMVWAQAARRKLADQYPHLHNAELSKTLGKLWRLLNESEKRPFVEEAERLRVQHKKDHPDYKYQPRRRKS
Method: (§5) His-tagged YAP and the SOX9-HMG domain purified from Escherichia coli were labeled with 25 nM RED-tris-NTA 2nd Generation dye at room temperature for 10 min. Then, the labeled protein was incubated with a serially diluted peptide or protein for 10 min at room temperature. MST buffer containing 50 mM Tris-HCl [pH 7.4], 150 mM NaCl, and 0.05% Tween-20 was used in all measurements. The solution was centrifuged for 10 min at 4 °C and 15,000 g, and the supernatant was transferred to a fresh tube. The sample was loaded into the capillaries and measured at 40% LED/excitation power and medium MST power. The KD was determined in MO. Affinity Analysis using the KD fit.

[13] = target: T1, YAP; assay: MST binding to YAP protein; parameters: made in house; host or cells: Escherichia coli; details: 50 mM Tris-HCl pH 7.4, 150 mM NaCl, 0.05% Tween-20, effect of D125A mutation on S-A1 binding
Method: as §5

[14] = tested on: YAP-R124me2a; assay: YAP-R124me2a level in cells (immunoblot); assay type: cell-based; details: Huh-7 cells co-transfected with V5-YAP and siPRMT1
Method: as §2

[15] = tested on: Huh-7 cells; assay: TEAD activity and oncogenic properties of Huh-7 cells; assay type: cell-based; details: Huh-7 cells treated with Lenti-YAP and siPrmt1 simultaneously
[16] = tested on: PLC cells; assay: YAP-induced gene expression and malignant features of PLC cells; assay type: cell-based; details: PLC cells infected with lenti-YAP; siRNA 20 nmol/L
Method: as §3

[17] = tested on: YAP-TEAD interaction; details: cited from earlier work
Text: (§6) The formation of YAP-partner complexes under certain pathological conditions makes YAP an ideal drug target.[44]–[46] […] In light of this, impeding ...

[18] = tested on: ovarian cancer; details: cited from earlier work
Text: as §6

T1 sequence (P46937 whole entry): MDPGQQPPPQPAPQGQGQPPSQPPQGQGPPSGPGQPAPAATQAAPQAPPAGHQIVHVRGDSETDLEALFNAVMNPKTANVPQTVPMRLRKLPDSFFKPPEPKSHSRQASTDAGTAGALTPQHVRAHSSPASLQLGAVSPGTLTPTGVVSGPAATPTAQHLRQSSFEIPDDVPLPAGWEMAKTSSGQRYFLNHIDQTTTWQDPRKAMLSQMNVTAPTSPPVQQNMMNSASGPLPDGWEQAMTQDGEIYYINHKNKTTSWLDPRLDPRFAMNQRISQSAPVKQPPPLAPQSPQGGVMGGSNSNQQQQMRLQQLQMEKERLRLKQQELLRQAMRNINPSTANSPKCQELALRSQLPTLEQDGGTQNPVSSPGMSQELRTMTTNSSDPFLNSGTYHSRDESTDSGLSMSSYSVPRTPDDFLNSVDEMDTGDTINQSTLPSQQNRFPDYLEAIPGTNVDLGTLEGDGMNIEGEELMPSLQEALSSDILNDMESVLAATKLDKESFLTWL

For `Clc1ccc(C(c2ccc(Cl)cc2)n2cc[n+](CC(OCc3ccc(Cl)cc3Cl)c3ccc(Cl)cc3Cl)c2)cc1` (centres unmarked) [CDZ, calmidazolium chloride], the “nuclear translocation of YAP” value ([1]; CDZ 5 nM, 24 h, Huh-7 cells transfected with V5-YAP, fractionation and immunoblot) was “significantly inhibited nuclear translocation of YAP”, the “transactivation of the YAP-TEAD reporter” value ([2]; CDZ 5 nM, 24 h, Huh-7 cells overexpressing YAP or YAP^S127A, 8×GTIIC reporter) was “significantly inhibited nuclear translocation of YAP and the transactivation of the YAP-TEAD reporter” and the “nuclear level of SOX9” value [3] was “decreased the nuclear level of SOX9”.

With `CC(C)Oc1ccc(-c2c[nH]cc2CN(C)CCN)cc1` [MS023] the “nuclear transport of YAP” value ([1]; fractionation and immunoblot) was “remarkedly blocked the nuclear transport of YAP in HCC cells”.

In the case of “Pep-S-A1: S-A1 linked to a cell-penetrating peptide (Pep) via a di-glycine linker (HLYVSPWGGAFMVWAQAARRKLADQ)”, the “disruption of YAP-SOX9 interaction (Co-IP)” value ([4]; HCC cells (Huh-7), peptides at indicated concentrations for 24 h) is reported as “disrupted the YAP-SOX9 interaction in HCC cells in a dose-dependent manner”, the “disruption of YAP-SOX9 interaction (PLA)” value [5] is reported as “disrupted the YAP-SOX9 interaction in HCC cells in a dose-dependent manner” and the “nuclear YAP levels” value ([1]; Huh-7 cells, live cell-imaging) is reported as “reduced nuclear YAP levels”. The YAP-target gene expression [6] was “inhibited YAP-target gene expression”, the YAP-TEAD activity ([2]; Huh-7 cells, 8×GTIIC reporter, 10 μM) was “suppressed YAP-TEAD activity” and the “proliferation of Hep3B cells” value [7] was “inhibited the proliferation of Hep3B cells”. The “proliferation of SOX9KO Huh-7 cells” value [8] was “had no effect on SOX9^KO Huh-7 cells”, the “YAP nuclear staining in tumor tissues” value ([9]; Huh-7 xenograft, IHC, 8 mg/kg) was “reduced YAP nuclear staining” and the “downstream gene transcription in tumor tissues” value ([9]; Huh-7 xenograft, qPCR of CTGF, CYR61 and AREG) was “reduced YAP nuclear staining and downstream gene transcription in the tumor tissues”. The “tumor growth (Huh-7 subcutaneous xenograft)” value ([9]; nude mice, intratumoral injection, twice weekly (day 1 and day 4), eight mice per group) was “dose-dependently suppressed tumor growth”, the “YAP nuclear aggregation in tumor tissues” value ([10]; orthotopic HCC, IHC, tail vein every 5 days) was “notably inhibited YAP nuclear aggregation” and the “downstream gene expression in tumor tissues” value ([10]; orthotopic HCC, qPCR of CTGF, CYR61 and AREG) was “notably inhibited YAP nuclear aggregation and downstream gene expression in the tumor tissues”. For the same molecule, the emitted bioluminescence ([10]; orthotopic HCC, tail vein every 5 days, compared with Pep-D125A, eight animals per group) was “significantly reduced the emitted bioluminescence”, the “tumor growth (orthotopic HCC)” value ([10]; tail vein every 5 days, compared with Pep-D125A, eight animals per group) was “significantly reduced the emitted bioluminescence and tumor growth compared with Pep-D125A” and the HCC cell proliferation [11] was “inhibited HCC cell proliferation”.

For “R124K: YAP peptide (aa 115–135) with R124K mutation (AGALTPQHVKAHSSPASLQLG; UniProt P46937 115-135, looked up, variant R124K)”, the “binding to SOX9-HMG (MST)” value [12] was “abolished”.

In the case of “S-A1-D125A: S-A1 peptide with D125A mutation (AFMVWAQAARRKLAAQ)”, the “binding to YAP (MST)” value [13] is reported as “abolished this binding”.

For “siPRMT1: siRNA GAGUUCACACGCUGCCACAtt (guide GAGUUCACACGCUGCCACATT; chemistry not given here)”, the YAP-SOX9 interaction ([4]; Huh-7 cells co-transfected with V5-YAP and siPRMT1) was “reduced YAP-SOX9 interaction”, the “nuclear transport of YAP” value ([1]; fractionation and immunoblot) was “remarkedly blocked the nuclear transport of YAP in HCC cells” and the “YAP activity (8×GTIIC reporter)” value ([2]; Huh-7 cells transfected with siPRMT1) was “decreased YAP activity”. The YAP-R124me2a level [14] was “decreased the YAP-R124me2a level” and the “TEAD activity and oncogenic properties triggered by YAP” value [15] was “significantly reversed the elevated TEAD activity and oncogenic properties of Huh-7 cells triggered by YAP”.

In the case of “siSOX9: siRNA CCACCUUCACCUACAUGAAtt (guide CCACCUUCACCUACAUGAATT; chemistry not given here)”, the “YAP-induced gene expression and malignant features” value [16] is reported as “notably attenuate the YAP-induced gene expression and malignant features of PLC cells”.

For verteporfin, the YAP-TEAD interaction [17] is given as “blocked the YAP-TEAD interaction” and the “ovarian cancer growth in mice” value [18] is given as “suppressed ovarian cancer growth in mice”.
